According to patent US20180228795A1, “COMBINATION THERAPY FOR CANCER” (Eli Lilly and Company, priority 2015, published 2018):

What was measured:
Assay in all cases: Antitumor effects in PDX mouse model of TNBC
Format in all cases: in vivo
PDX TNBC Model ST319 = conditions: A 10 mg/kg SC BID 3 days on/4 off ×4, B 7.5 mg/kg PO BID×28, versus vehicle
Excerpt: (§1) Establish PDX tumor models from viable human tumor tissue and serially passage in immunocompromised female mice a limited number of times. Using tumor fragments harvested from donor host animals, perform unilateral subcutaneous implants from a specific passage of the PDX tumor model on the flanks of the experimental animals. When tumor volumes reach approximately 150-250 mm^3 in size, randomize the animals by treatment arm by randomization techniques well known in the art and place into their respective treatment groups using 1 animal per treatment group (3 animals in an untreated group). Formulate CHK1 inhibitor, 5-(5-(2-(3-aminopropoxy)-6-methoxyphenyl)-1H-pyrazol-3-ylamino)pyrazine-2-carbonitrile methanesulfonate hydrate, (Compound A) every 14 days in 20% captisol (dissolved in water) and administer subcutaneously twice daily at a dose of 10 mg/kg on days 1/2/3 of a weekly cycle for 4 weeks (SC, BID [3 days on/4 off]×4). Formulate the PI3K/mTOR dual inhibitor, 8-[5-(1-hydroxy-1-methylethyl)pyridin-3-yl]-1-[(2S)-2-methoxypropyl]-3-methyl-1,3-dihydro-2H-imidazo[4,5-c]quinolin-2-one, (Compound B) weekly in 1% (HEC)/0.25% Tween 80 (Polysorbate 80)/0.05% Dow-Corning Antifoam 1510-US and administer by oral gavage twice-daily for 28 days (PO, BID×28) at a dose of 7.5 mg/kg. Dose combination treatment animals with both compounds according to the schedule described above for monotherapy, and dose vehicle treatment animals with vehicle according to the schedule for Compound B.
(§2) Test the combination of Compound A and Compound B, as well as their respective monotherapies, in 40 PDX models (Table 1) of TNBC. Assess antitumor efficacy of the treatment groups by measuring tumor volume via caliper measurements twice a week during the course of the study. Measure body weight twice weekly during the course of the study as a general indicator of tolerability.
(§3) Capture tumor size and body weight twice per week. Estimate tumor volume (V) by using the formula: V=(π/6)×L×W^2 where L=larger of measured diameter and W=smaller perpendicular diameter. Calculate relative tumor volume using the tumor volume measurement taken nearest to the last day of dosing for each animal (T), divided by the baseline tumor volume for that animal (T0), which is the volume recorded on or just prior to the first day of dosing, Y=T/T0. Calculate % ΔT/ΔC values using the formula % ΔT/ΔC=100(YT−1)/(YC−1), whereby YT or YC=geometric mean relative volume of the compound treated group or the control group, respectively. Tumor growth inhibition is observed in those instances where the calculated values for % ΔT/ΔC are less than 100% whereby greater inhibition results in smaller % ΔT/ΔC values. If ΔT<0, then a tumor regression value is calculated instead of % ΔT/ΔC whereby % Regression=100(YT−1). Note that negative values indicate regression. We collectively refer to % ΔT/ΔC and % Regression as % Response.
(§4) Examine relative tumor volume (final volume divided by baseline volume) on the last day of treatment or the last day on which data from all three treatment groups and vehicle is available, if it is earlier than the last day of treatment and at least 14 days after baseline. Expected additive relative volume is determined using the Bliss method (Bliss, C. I., Ann Appl Biol, 1939; 26(3):585-615). Specifically, denoting Y=relative volume, YExp=(Y1*Y2)/YV, where YExp=expected additive relative volume, Y1 and Y2 are the relative volumes in the single agent groups (Compound A and Compound B), and YV is the relative volume in the vehicle group. A range of additivity is defined around the expected additive relative volume via upper and lower limits as follows:
(§5) Yupper=max(2*YExp,YExp+0.2)
(§6) Ylower=min(YExp/2,YExp−0.2)
(§7) The upper limit of the range is the larger of 2-fold above or 20% above the expected additive relative volume, and the lower limit is the smaller of 2-fold below or 20% below the expected additive relative volume. […]

PDX TNBC Model ST848 = conditions: A 10 mg/kg SC BID 3 days on/4 off ×4, B 7.5 mg/kg PO BID×28, versus vehicle
Excerpt: as §1, §2, §3, §4, §5, §6, §7

PDX TNBC Model CTG-0986 = conditions: PDX model CTG-0986; A 10 mg/kg SC BID 3 days on/4 off ×4; B 7.5 mg/kg PO BID×28; versus vehicle
Excerpt: as §1, §2, §3, §4, §5, §6, §7

PDX TNBC Model CTG-1019 = conditions: PDX model CTG-1019; A 10 mg/kg SC BID 3 days on/4 off ×4; B 7.5 mg/kg PO BID×28; versus vehicle
Excerpt: as §1, §2, §3, §4, §5, §6, §7

PDX TNBC Model ST231 = conditions: A 10 mg/kg SC BID 3 days on/4 off ×4, B 7.5 mg/kg PO BID×28, versus vehicle
Excerpt: as §1, §2, §3, §4, §5, §6, §7

PDX TNBC Model CTG-1106 = conditions: PDX model CTG-1106; A 10 mg/kg SC BID 3 days on/4 off ×4; B 7.5 mg/kg PO BID×28; versus vehicle
Excerpt: as §1, §2, §3, §4, §5, §6, §7

PDX TNBC Model ST069 = conditions: A 10 mg/kg SC BID 3 days on/4 off ×4, B 7.5 mg/kg PO BID×28, versus vehicle
Excerpt: as §1, §2, §3, §4, §5, §6, §7

PDX TNBC Model CTG-1242 = conditions: PDX model CTG-1242; A 10 mg/kg SC BID 3 days on/4 off ×4; B 7.5 mg/kg PO BID×28; versus vehicle
Excerpt: as §1, §2, §3, §4, §5, §6, §7

PDX TNBC Model CTG-1153 = conditions: PDX model CTG-1153; A 10 mg/kg SC BID 3 days on/4 off ×4; B 7.5 mg/kg PO BID×28; versus vehicle
Excerpt: as §1, §2, §3, §4, §5, §6, §7

PDX TNBC Model CTG-1520 = conditions: PDX model CTG-1520; A 10 mg/kg SC BID 3 days on/4 off ×4; B 7.5 mg/kg PO BID×28; versus vehicle
Excerpt: as §1, §2, §3, §4, §5, §6, §7

PDX TNBC Model ST035 = conditions: A 10 mg/kg SC BID 3 days on/4 off ×4, B 7.5 mg/kg PO BID×28, versus vehicle
Excerpt: as §1, §2, §3, §4, §5, §6, §7

PDX TNBC Model CTG-1350 = conditions: PDX model CTG-1350; A 10 mg/kg SC BID 3 days on/4 off ×4; B 7.5 mg/kg PO BID×28; versus vehicle
Excerpt: as §1, §2, §3, §4, §5, §6, §7

PDX TNBC Model CTG-0017 = conditions: PDX model CTG-0017; A 10 mg/kg SC BID 3 days on/4 off ×4; B 7.5 mg/kg PO BID×28; versus vehicle
Excerpt: as §1, §2, §3, §4, §5, §6, §7

Compound	% Rsp. (% ΔT/ΔC or % Regression) (PDX TNBC Model ST319) [%]	% Rsp. (% ΔT/ΔC or % Regression) (PDX TNBC Model ST848) [%]	% Rsp. (% ΔT/ΔC or % Regression) (PDX TNBC Model CTG-0986) [%]	% Rsp. (% ΔT/ΔC or % Regression) (PDX TNBC Model CTG-1019) [%]	% Rsp. (% ΔT/ΔC or % Regression) (PDX TNBC Model ST231) [%]	% Rsp. (% ΔT/ΔC or % Regression) (PDX TNBC Model CTG-1106) [%]	% Rsp. (% ΔT/ΔC or % Regression) (PDX TNBC Model ST069) [%]	% Rsp. (% ΔT/ΔC or % Regression) (PDX TNBC Model CTG-1242) [%]	% Rsp. (% ΔT/ΔC or % Regression) (PDX TNBC Model CTG-1153) [%]	% Rsp. (% ΔT/ΔC or % Regression) (PDX TNBC Model CTG-1520) [%]	% Rsp. (% ΔT/ΔC or % Regression) (PDX TNBC Model ST035) [%]	% Rsp. (% ΔT/ΔC or % Regression) (PDX TNBC Model CTG-1350) [%]	% Rsp. (% ΔT/ΔC or % Regression) (PDX TNBC Model CTG-0017) [%]
COc1cccc(OCCCN)c1-c1cc(Nc2cnc(C#N)cn2)n[nH]1.CS(=O)(=O)O [Compound A, 5-(5-(2-(3-aminopropoxy)-6-methoxyphenyl)-1H-pyrazol-3-ylamino)pyrazine-2-carbonitrile methanesulfonate hydrate]	8.9	−50.0	32.2	86.6	−74.6	−39.0	−79.6	66.8	−23.6	49.9	2.1	20.3	52.3
CO[C@@H](C)Cn1c(=O)n(C)c2cnc3ccc(-c4cncc(C(C)(C)O)c4)cc3c21 [Compound B, 8-[5-(1-hydroxy-1-methylethyl)pyridin-3-yl]-1-[(2S)-2-methoxypropyl]-3-methyl-1,3-dihydro-2H-imidazo[4,5-c]quinolin-2-one]	40.3	24.6	54.6	158.0	76.8	−31.0	112.0	107.3	86.5	61.2	54.0	7.7	28.1
